The values below come from patent US20200206233A1 (INTEGRAL BIOSCIENCES PRIVATE LIMITED, priority 2018, published 2020).

For one assay, the target named is T1, IDH2 mutant (R140Q) (Homo sapiens, UniProt P48735, R140Q).
T1 construct: purchased BPS Bioscience 71100-2
T1 sequence (P48735 40-452 R140Q): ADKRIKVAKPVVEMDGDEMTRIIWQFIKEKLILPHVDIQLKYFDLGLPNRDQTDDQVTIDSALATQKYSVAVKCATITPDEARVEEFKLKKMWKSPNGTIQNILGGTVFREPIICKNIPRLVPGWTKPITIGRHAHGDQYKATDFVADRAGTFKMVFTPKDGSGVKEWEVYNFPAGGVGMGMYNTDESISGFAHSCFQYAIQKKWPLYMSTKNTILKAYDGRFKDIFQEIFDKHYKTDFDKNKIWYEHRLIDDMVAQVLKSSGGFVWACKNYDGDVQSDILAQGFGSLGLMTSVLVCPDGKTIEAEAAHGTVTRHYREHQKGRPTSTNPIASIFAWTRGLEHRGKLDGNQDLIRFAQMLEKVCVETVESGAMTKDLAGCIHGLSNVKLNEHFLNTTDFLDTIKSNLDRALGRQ
Kind of assay: Mutant IDH2-R140Q Fluorescence Assay (Resazurin based). In kind it is biochemical. The note with it: 5 nM IDH2 R140Q, 4 hr pre-incubation, 1 mM α-ketoglutarate, 5 μM NADPH, 2 h. As for the experimental part:
IC50 values of compounds against IDH2 mutant (R140Q) were determined by Resazurin based Fluorescence assay. Assay was performed in Buffer (25 mM Tris HCl, 150 mM NaCl, 10 mM MgCl2, 0.03% BSA, 2 mM 1-mercaptoethanol) where total reaction volume was 12.5 μL in low-volume 384-well plates (Cat #4511, Corning). Serially diluted compounds (3-fold) were pre-incubated with IDH2 R140Q mutant enzyme (5 nM; Cat #71100-2, BPS Bioscience) for 4 hr at RT (25° C.) followed by addition of cocktail of α-ketoglutarate (1 mM; Cat #75892-25G, Sigma), and NADPH (5 μM; Cat # N1630-100MG, Sigma) with buffer in dark at room temperature for 2 h. After 2 h incubation, 6.25 μL detection solution containing Resazurin (30 μM; (Cat #62758-13-8, Sigma) and Diaphorase (40 ug/ml; Cat # D2197-300UN, Sigma) in buffer was added and incubated for 15 min. Readings were taken in a Synergy Neo Plate reader (BioTek, Winooski) at single excitation of 540 nm and emission at 590 nm respectively.
(§1) The % activity of test samples was calculated as (Sample−Min)×100/(Max−Min). [Max: DMSO control, complete reaction with enzyme with DMSO and Min: No enzyme with DMSO]. Percent inhibition (100−% activity) was fitted to the “four-parameter logistic model” in XLfit for determination of IC50 values.
(In general: Alamar Blue is a resazurin reagent that responds to reducing activity.)

Another assay has as its target T2, IDH1-WT (Homo sapiens, UniProt O75874).
T2 construct: purchased BPS Bioscience 71075-2
Kind of assay: IDH1-WT Fluorescence Assay (Resazurin based). In kind it is biochemical. The conditions noted are these: 1 nM IDH1-WT, 200 μM isocitrate, 15 μM NADP+, 30 min at room temperature. The protocol: IC50 values of compounds against IDH1-WT was determined by Resazurin based Fluorescence assay. Assays were performed in Buffer (50 mM Tris HCl, 10 mM MgCl2, 0.03% BSA, 2 mM ß-mercaptoethanol) where total reaction volume was 25 μL in low-volume 96-well plates. Serially diluted compounds (3-fold) in DMSO (0.5% in final reaction) were incubated with cocktail of isocitrate (200 μM; Cat # I1252-1G, Sigma), NADP^+ (15 μM; Cat # N0505-500MG, Sigma) and buffer for 5 min, following addition of IDH1-WT enzyme (1 nM; Cat #71075-2, BPS Bioscience) and incubated in dark at room temperature for 30 min. After that, 12.5 μL detection solution containing Resazurin (60 μM; Cat #62758-13-8, Sigma) and Diaphorase (40 μg/ml; Cat # D2197-300UN, Sigma) in buffer was added and incubated for 15 min. Readings were taken using a Synergy Neo Plate reader (BioTek, Winooski) at single excitation of 540 nm and emission at 590 nm respectively.
The % (percent) activity of test samples was calculated as (Sample−Min)×100/(Max−Min). [Max: DMSO control, complete reaction with enzyme with DMSO and Min: No enzyme with DMSO]. Percent inhibition (100−% activity) was fitted to the “four-parameter logistic model” in XLfit for determination of IC50 values.

A further assay deals with T3, IDH1 mutant (R132H) (Homo sapiens, UniProt O75874, R132H).
T3 construct: purchased BPS Bioscience 71099-2
Kind of assay: Mutant IDH1-R132H Fluorescence Assay (Resazurin based). In kind it is biochemical. The note with it: 10 nM IDH1 R132H, 4 mM α-ketoglutarate, NADPH, 1.5 h at room temperature. The procedure, abridged: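 Recombinant IDH1 R132H (10 nM) was run with α-ketoglutarate (4 mM) and NADPH ([…]) for 1.5 h at room temperature in Tris pH buffer with MgCl2, BSA and mercaptoethanol. Remaining NADPH was detected via diaphorase/resazurin fluorescence (ex 540/em 590 nm). IC50 came from a 4-parameter logistic fit.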

Assay [1] addresses T4, mutant IDH1 (R132C) HT1080 cells (Homo sapiens, UniProt O75874, R132C).
T4 construct: host or cells: HT1080
Kind of assay: Cellular 2-HG assay using mutant IDH1 (R132C) HT1080 cells. The format is cell-based. The note with it: 48 h treatment, 0.003 to 3 μM, 2-HG in cell culture media. The protocol: HT1080 (ATCC® CCL-121™) cells were plated in a 12 well plate (Nunc™ Cell-Culture Treated Multidish; Cat #150628) at a cell density of 5×10^4 cells/well. Cells were then treated with various concentrations of test/reference compounds (ranging from 0.003 to 3 μM) or vehicle for 48 h under cell culture conditions (in CO2 incubator, 5% CO2, 37° C.). Metabolites were extracted from cell culture media by precipitation method and IC50 values of compounds were determined by Resazurin based Fluorescence assay. Assay buffer contained 100 mM HEPES pH 8.0, 100 μM NAD^+ (Sigma; Cat # N1630-100MG), […] HGDH, 5 μM resazurin (Cat #62758-13-8, Sigma) and 0.01 U/ml diaphorase (Cat # D2197-300UN, Sigma). Total assay volume was 100 μl. 75 μl of assay buffer was added to 25 μl sample volume (supernatant) and incubated at RT in the dark for 30 min in black 96-well plates (Thermo Scientific). Fluorometric detection was done using a Synergy Neo Plate reader (BioTek, Winooski) at single excitation of 540 nm and emission at 590 nm respectively).
as §1

T2 sequence (O75874 whole entry): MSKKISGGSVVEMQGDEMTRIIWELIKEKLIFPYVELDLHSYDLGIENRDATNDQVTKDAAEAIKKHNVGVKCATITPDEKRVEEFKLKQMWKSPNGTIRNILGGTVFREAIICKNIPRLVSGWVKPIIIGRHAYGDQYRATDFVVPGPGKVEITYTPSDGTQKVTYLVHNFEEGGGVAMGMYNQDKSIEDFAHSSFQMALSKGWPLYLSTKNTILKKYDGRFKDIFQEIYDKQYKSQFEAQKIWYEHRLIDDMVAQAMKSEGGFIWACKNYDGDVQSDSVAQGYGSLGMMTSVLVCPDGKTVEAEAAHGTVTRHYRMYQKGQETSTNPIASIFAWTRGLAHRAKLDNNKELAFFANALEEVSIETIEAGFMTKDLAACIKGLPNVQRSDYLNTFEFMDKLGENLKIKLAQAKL
T4 sequence (O75874 2-414 R132C limits assumed): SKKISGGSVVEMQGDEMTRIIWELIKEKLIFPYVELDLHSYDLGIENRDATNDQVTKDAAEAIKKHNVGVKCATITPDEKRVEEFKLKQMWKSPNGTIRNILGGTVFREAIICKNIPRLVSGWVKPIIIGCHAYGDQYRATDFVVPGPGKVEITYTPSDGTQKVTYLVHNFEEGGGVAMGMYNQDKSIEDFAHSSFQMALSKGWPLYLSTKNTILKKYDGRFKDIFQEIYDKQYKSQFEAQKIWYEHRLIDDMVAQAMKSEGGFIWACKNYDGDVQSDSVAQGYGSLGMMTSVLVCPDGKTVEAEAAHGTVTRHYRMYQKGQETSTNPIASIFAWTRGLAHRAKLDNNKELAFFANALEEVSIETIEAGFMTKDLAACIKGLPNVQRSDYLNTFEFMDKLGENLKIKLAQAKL
T3 sequence (O75874 whole entry R132H): as the sequence (O75874 whole entry) above, with R132H counted along it

Regarding `CC[C@H]1COC(=O)N1c1nc(C)nc(N[C@@H](C)c2cc3cc(Cl)c(OC(C)C)cc3[nH]c2=O)n1` [Compound 1.104, (S)-3-(4-((S)-1-(6-chloro-7-isopropoxy-2-oxo-1,2-dihydroquinolin-3-yl)ethylamino)-6-methyl-1,3,5-triazin-2-yl)-4-ethyloxazolidin-2-one], the IC50 – broadly, the concentration at which inhibition is half-maximal – at IDH2 mutant (R140Q) is more than 50000 nM; on IDH1-WT it was more than 50000 nM; at IDH1 mutant (R132H) it was 75 nM; in assay [1], 94 nM.
As for `Cc1nc(N[C@@H](C)c2cc3cc(Cl)ccc3[nH]c2=O)nc(N2C(=O)OC[C@@H]2[C@H](C)F)n1` [Compound 1.59, (R)-3-(4-((S)-1-(6-chloro-2-oxo-1,2-dihydroquinolin-3-yl)ethylamino)-6-methyl-1,3,5-triazin-2-yl)-4-((S)-1-fluoroethyl) oxazolidin-2-one], the IC50 at IDH2 mutant (R140Q) is more than 50000 nM; at IDH1-WT, more than 50000 nM; on IDH1 mutant (R132H), 178 nM; in assay [1], 271 nM.
`CC[C@H]1COC(=O)N1c1nc(C)nc(N[C@@H](C)c2cc3cc(Cl)ccc3[nH]c2=O)n1` [Compound 1.38, (S)-3-(4-((S)-1-(6-chloro-2-oxo-1,2-dihydroquinolin-3-yl)ethylamino)-6-methyl-1,3,5-triazin-2-yl)-4-ethyloxazolidin-2-one]: the IC50 at IDH2 mutant (R140Q) was more than 50000 nM; at IDH1-WT, more than 50000 nM; at IDH1 mutant (R132H), 144 nM; in assay [1], 634 nM.
For the molecule `CC[C@H]1COC(=O)N1c1nc(C)nc(N[C@@H](C)c2ccc(Oc3ccccc3)cc2)n1` [Compound 1.44, (S)-4-ethyl-3-(4-methyl-6-((S)-1-(4-phenoxyphenyl)ethylamino)-1,3,5-triazin-2-yl)oxazolidin-2-one], the IC50 is more than 50000 nM at IDH2 mutant (R140Q), more than 50000 nM on IDH1-WT, 209 nM on IDH1 mutant (R132H) and 168 nM in assay [1].
With `Cc1nc(N[C@@H](C)c2ccc(Oc3ccccc3)cc2)nc(N2C(=O)OC[C@@H]2[C@H](C)F)n1` [Compound 1.64, (R)-4-((S)-1-fluoroethyl)-3-(4-methyl-6-((S)-1-(4-phenoxyphenyl)ethylamino)-1,3,5-triazin-2-yl)oxazolidin-2-one], the IC50 is more than 50000 nM at IDH2 mutant (R140Q), more than 50000 nM on IDH1-WT, 227 nM at IDH1 mutant (R132H) and 36 nM in assay [1].
On to `Cc1cc(-c2ccc([C@H](C)Nc3ncnc(N4C(=O)OC[C@@H]4C(C)C)n3)nc2)ccc1F` [Compound 1.3, (S)-3-(4-((S)-1-(5-(4-fluoro-3-methylphenyl)pyridin-2-yl)ethylamino)-1,3,5-triazin-2-yl)-4-isopropyloxazolidin-2-one], for which the IC50 was more than 30000 nM on IDH2 mutant (R140Q), more than 30000 nM on IDH1-WT and 830 nM at IDH1 mutant (R132H).
For `Cc1cc([C@H](C)Nc2ncnc(N3C(=O)OC[C@@H]3C(C)C)n2)ncc1-c1ccnc(C(F)(F)F)c1` [Compound 1.21, (S)-4-isopropyl-3-(4-((S)-1-(4-methyl-2′-(trifluoromethyl)-3,4′-bipyridin-6-yl)ethylamino)-1,3,5-triazin-2-yl)oxazolidin-2-one], the IC50 was more than 50000 nM on IDH2 mutant (R140Q), more than 50000 nM at IDH1-WT and 1400 nM on IDH1 mutant (R132H).
Turning to `CC[C@H]1COC(=O)N1c1nc(C)nc(N[C@@H](C)c2cc3cc(Br)ccc3[nH]c2=O)n1` [Compound 1.66, (S)-3-(4-((S)-1-(6-bromo-2-oxo-1,2-dihydroquinolin-3-yl)ethylamino)-6-methyl-1,3,5-triazin-2-yl)-4-ethyloxazolidin-2-one], the IC50 on IDH2 mutant (R140Q) is more than 50000 nM; at IDH1-WT it was more than 50000 nM; at IDH1 mutant (R132H), 328 nM.
For `CC(C)[C@H]1COC(=O)N1c1ncnc(N[C@@H](C)c2ccc(Oc3ccccc3)cc2)n1` [Compound 1.9, (S)-4-isopropyl-3-(4-((S)-1-(4-phenoxyphenyl)ethylamino)-1,3,5-triazin-2-yl)oxazolidin-2-one], the IC50 on IDH2 mutant (R140Q) is more than 50000 nM; at IDH1-WT it was more than 30000 nM; on IDH1 mutant (R132H), 642 nM.
As for `Cc1nc(N[C@@H](C)c2ccc(Oc3ccccc3)cc2)nc(N2C(=O)OC[C@@H]2C(C)C)n1` [Compound 1.27, (S)-4-isopropyl-3-(4-methyl-6-((S)-1-(4-phenoxyphenyl)ethylamino)-1,3,5-triazin-2-yl)oxazolidin-2-one], the IC50 on IDH2 mutant (R140Q) is more than 50000 nM; at IDH1-WT it was more than 50000 nM; at IDH1 mutant (R132H), 396 nM.
For the molecule `COc1nc(N[C@@H](C)c2ccc(Oc3ccccc3)cc2)nc(N2C(=O)OC[C@@H]2C(C)C)n1` [Compound 1.31, (S)-4-isopropyl-3-(4-methoxy-6-((S)-1-(4-phenoxyphenyl)ethylamino)-1,3,5-triazin-2-yl)oxazolidin-2-one], the IC50 at IDH2 mutant (R140Q) was more than 50000 nM; on IDH1-WT, more than 30000 nM; at IDH1 mutant (R132H), 486 nM.
In the case of `CC[C@@H](Nc1ncnc(N2C(=O)OC[C@@H]2C(C)C)n1)c1ccc(Oc2ccccc2)cc1` [Compound 1.34, (S)-4-isopropyl-3-(4-((R)-1-(4-phenoxyphenyl)propylamino)-1,3,5-triazin-2-yl)oxazolidin-2-one], the figures for the IC50 on IDH2 mutant (R140Q), on IDH1-WT and at IDH1 mutant (R132H) were more than 50000 nM, more than 30000 nM and more than 30000 nM, respectively.
Consider `CC(C)[C@H]1COC(=O)N1c1ncnc(N[C@@H](C)c2cn(-c3ccc(Cl)cc3)cn2)n1` [Compound 1.13, (S)-3-(4-((S)-1-(1-(4-chlorophenyl)-1H-imidazol-4-yl)ethylamino)-1,3,5-triazin-2-yl)-4-isopropyloxazolidin-2-one], for which the IC50 at IDH2 mutant (R140Q) was more than 50000 nM; at IDH1-WT it was more than 30000 nM; on IDH1 mutant (R132H), 770 nM.
